The values below come from US5459260A, “Tricyclic or tetracyclic carbapenem compounds, their production and use” (Takeda Chemical Industries, Ltd., priority 1991, dated 1995).

Values after ≈ are worked out from the molar mass of the structure shown.

Holding throughout (test): MIC by the agar dilution method
What all share (format): cell-based
On the technique in general: Agar dilution tests growth on a series of plates holding different concentrations.

Assay [1] concerns S. marcescens IFO 12648. As to conditions: Serratia marcescens, IFO12648, 10^8 CFU/ml, Trypticase soy agar, 37° C. overnight. On the procedure:
(§1) The MICs of the test compound were determined by the agar dilution method. Thus, 1.0 ml portions of serially diluted aqueous solutions of the test compound were poured in petri dishes and admixed with 9.0 ml portions of Trypticase soy agar. Then, a suspension (about 10^8 CFU/ml) of each test strain was smeared on each agar plate and incubated at 37° C. overnight. The lowest concentration of the test compound inhibiting growth of the test strain 100% was regarded as the minimal inhibitory concentration, MIC.

The test system of assay [2] is E. coli NIHJ JC-2. The settings on record: Escherichia coli, NIHJJC2, 10^8 CFU/ml, Trypticase soy agar, 37° C. overnight. The method, then:
as §1

Assay [3] has as its system S. aureus 308A-1. As to conditions: Staphylococcus aureus, 308A1, 10^8 CFU/ml, Trypticase soy agar, 37° C. overnight. On the procedure: as §1
The subject of assay [4] is K. pneumoniae DT. As to conditions: Klebsiella pneumoniae, 10^8 CFU/ml, Trypticase soy agar, 37° C. overnight. On the procedure: as §1
Assay [5] has as its system S. pyogenes E-14. The settings on record: Streptococcus pyogenes, E14, 10^8 CFU/ml, Trypticase soy agar, 37° C. overnight. On the procedure: as §1
For assay [6], the system named is E. cloacae IFO 12937. As to conditions: Enterobacter cloacae, IFO12937, 10^8 CFU/ml, Trypticase soy agar, 37° C. overnight. On the procedure: as §1
Assay [7] deals with P. mirabilis IFO 3849. As to conditions: Proteus mirabilis, IFO3849, 10^8 CFU/ml, Trypticase soy agar, 37° C. overnight. The method, then:
as §1

Assay [8] concerns C. freundii TN 474. The settings on record: Citrobacter freundii, TN474, 10^8 CFU/ml, Trypticase soy agar, 37° C. overnight. The method, then: as §1
Assay [9] has as its system E. cloacae TN 583. The settings on record: Enterobacter cloacae, TN583, 10^8 CFU/ml, Trypticase soy agar, 37° C. overnight. On the procedure: as §1
For assay [10], the system named is E. coli NIHJ T-7. As to conditions: Escherichia coli, NIHJT7, 10^8 CFU/ml, Trypticase soy agar, 37° C. overnight. On the procedure: as §1
Assay [11] concerns S. aureus FDA 209P. The settings on record: Staphylococcus aureus, FDA209P, 10^8 CFU/ml, Trypticase soy agar, 37° C. overnight. On the procedure:
as §1

Assay [12] has as its system S. aureus 1840. As to conditions: Staphylococcus aureus, 10^8 CFU/ml, Trypticase soy agar, 37° C. overnight. On the procedure:
as §1

For assay [13], the system named is S. pyogenes S-8. As to conditions: Streptococcus pyogenes, S8, 10^8 CFU/ml, Trypticase soy agar, 37° C. overnight. On the procedure:
as §1

For assay [14], the system named is C. diphtheriae Tronto. As to conditions: Corynebacterium diphtheriae, 10^8 CFU/ml, Trypticase soy agar, 37° C. overnight. The method, then: as §1
Assay [15] concerns E. coli NIHJ O-111. As to conditions: Escherichia coli, NIHJO111, 10^8 CFU/ml, Trypticase soy agar, 37° C. overnight. The method, then:
as §1

Assay [16] relates to P. vulgaris IFO 3988. As to conditions: Proteus vulgaris, IFO3988, 10^8 CFU/ml, Trypticase soy agar, 37° C. overnight. The method, then:
as §1

In assay [17] the test system is K. oxytoca TN 1711. The settings on record: Klebsiella oxytoca, TN1711, 10^8 CFU/ml, Trypticase soy agar, 37° C. overnight. On the procedure:
as §1

Assay [18] has as its system S. pneumoniae Type I. As to conditions: Streptococcus pneumoniae, 10^8 CFU/ml, Trypticase soy agar, 37° C. overnight. The method, then:
as §1

Assay [19] concerns S. mitis America. As to conditions: Streptococcus mitis, 10^8 CFU/ml, Trypticase soy agar, 37° C. overnight. The method, then: as §1
In assay [20] the test system is M. morganii IFO 3168. The settings on record: Morganella morganii, IFO3168, 10^8 CFU/ml, Trypticase soy agar, 37° C. overnight. On the procedure: as §1
Assay [21] deals with C. freundii IFO 12681. The settings on record: Citrobacter freundii, IFO12681, 10^8 CFU/ml, Trypticase soy agar, 37° C. overnight. The method, then:
as §1

The term MIC denotes the lowest concentration that inhibits growth of the organism. Lower therefore signals greater potency. With `C[C@@H](O)[C@H]1C(=O)N2C(C(=O)O)=C3[C@@H](CCO)CCO[C@@H]3[C@H]12` [Example 19], the minimum inhibitory concentration (MIC) in assay [1] was 0.78 µg/mL (≈ 2.62 µM); in assay [2], below 0.1 µg/mL; in assay [3], below 0.1 µg/mL; in assay [4], 0.2 µg/mL (≈ 0.673 µM); in assay [5] it was below 0.1 µg/mL; in [6], 6.25 µg/mL (≈ 21 µM). The MIC in assay [7] was 0.39 µg/mL (≈ 1.31 µM); in [8] it was 6.25 µg/mL (≈ 21 µM); in assay [9], 12.5 µg/mL (≈ 42 µM); in [10], 1.56 µg/mL (≈ 5.25 µM); in assay [11], below 0.1 µg/mL; in [12], 0.2 µg/mL (≈ 0.673 µM). Moreover, the MIC in [13] is below 0.1 µg/mL; in [14], 0.2 µg/mL (≈ 0.673 µM); in assay [15], below 0.1 µg/mL; in assay [16], 0.78 µg/mL (≈ 2.62 µM); in assay [17] it was 1.56 µg/mL (≈ 5.25 µM); in [18], below 0.1 µg/mL. In addition, the figures for the MIC in [19], in assay [20] and in assay [21] were below 0.1 µg/mL, 0.78 µg/mL (≈ 2.62 µM) and 0.2 µg/mL (≈ 0.673 µM), respectively.
